Measurements reported in patent publication US20230167081A1, “5-AMINO-2-PIPERIDINON-3-YL-1-OXOISOINDOLINE DERIVATIVES FOR DEGRADATION OF IKZF2 DEGRADERS” (President and Fellows of Harvard College, priority 2020, published 2023).
“Also recorded” adds a separate entry of the source. Where two headings read alike, the source gives them in different places.

What was measured:
IKZF2 [1] = target: T1, IKZF2 (Homo sapiens, UniProt Q9UKS7); conditions: background statement; cited from earlier work
Target sequence in this assay (Q9UKS7 whole entry): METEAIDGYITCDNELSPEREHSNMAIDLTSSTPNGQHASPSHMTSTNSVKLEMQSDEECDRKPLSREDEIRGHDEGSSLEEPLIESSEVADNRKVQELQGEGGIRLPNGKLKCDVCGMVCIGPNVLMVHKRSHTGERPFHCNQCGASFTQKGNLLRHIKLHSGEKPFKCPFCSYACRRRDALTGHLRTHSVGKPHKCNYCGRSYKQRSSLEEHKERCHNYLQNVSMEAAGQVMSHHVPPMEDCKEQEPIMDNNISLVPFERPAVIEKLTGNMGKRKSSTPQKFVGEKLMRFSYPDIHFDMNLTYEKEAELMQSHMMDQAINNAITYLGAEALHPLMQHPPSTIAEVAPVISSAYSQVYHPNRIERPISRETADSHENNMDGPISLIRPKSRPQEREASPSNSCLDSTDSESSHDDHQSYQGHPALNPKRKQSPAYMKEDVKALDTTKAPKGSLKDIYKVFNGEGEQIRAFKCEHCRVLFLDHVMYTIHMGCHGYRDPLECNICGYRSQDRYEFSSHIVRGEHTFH
Target sequence in this assay (Q96SW2 whole entry, further chain): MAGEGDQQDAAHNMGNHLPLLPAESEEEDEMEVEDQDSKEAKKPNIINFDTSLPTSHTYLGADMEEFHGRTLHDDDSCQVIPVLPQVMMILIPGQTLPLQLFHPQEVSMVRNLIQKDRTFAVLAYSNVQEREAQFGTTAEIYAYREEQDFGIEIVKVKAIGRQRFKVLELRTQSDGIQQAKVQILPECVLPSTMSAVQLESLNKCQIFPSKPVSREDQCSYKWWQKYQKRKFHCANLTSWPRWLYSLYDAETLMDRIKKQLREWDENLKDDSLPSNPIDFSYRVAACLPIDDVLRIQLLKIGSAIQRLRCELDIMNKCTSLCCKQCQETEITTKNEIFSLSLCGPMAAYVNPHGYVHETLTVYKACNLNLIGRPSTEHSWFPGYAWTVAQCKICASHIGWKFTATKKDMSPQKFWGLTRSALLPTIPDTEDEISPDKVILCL

IKZF1 = target: T2, IKZF1 (Homo sapiens, UniProt Q13422); experiment: Western blot, IKZF1 levels in MOLM13 cells; assay type: cell-based
T2 construct: endogenous in cells; host or cells: MOLM13
T2 sequence (Q96SW2 whole entry partner): as the sequence (Q96SW2 whole entry, further chain) above
T2 sequence (Q16531 whole entry partner): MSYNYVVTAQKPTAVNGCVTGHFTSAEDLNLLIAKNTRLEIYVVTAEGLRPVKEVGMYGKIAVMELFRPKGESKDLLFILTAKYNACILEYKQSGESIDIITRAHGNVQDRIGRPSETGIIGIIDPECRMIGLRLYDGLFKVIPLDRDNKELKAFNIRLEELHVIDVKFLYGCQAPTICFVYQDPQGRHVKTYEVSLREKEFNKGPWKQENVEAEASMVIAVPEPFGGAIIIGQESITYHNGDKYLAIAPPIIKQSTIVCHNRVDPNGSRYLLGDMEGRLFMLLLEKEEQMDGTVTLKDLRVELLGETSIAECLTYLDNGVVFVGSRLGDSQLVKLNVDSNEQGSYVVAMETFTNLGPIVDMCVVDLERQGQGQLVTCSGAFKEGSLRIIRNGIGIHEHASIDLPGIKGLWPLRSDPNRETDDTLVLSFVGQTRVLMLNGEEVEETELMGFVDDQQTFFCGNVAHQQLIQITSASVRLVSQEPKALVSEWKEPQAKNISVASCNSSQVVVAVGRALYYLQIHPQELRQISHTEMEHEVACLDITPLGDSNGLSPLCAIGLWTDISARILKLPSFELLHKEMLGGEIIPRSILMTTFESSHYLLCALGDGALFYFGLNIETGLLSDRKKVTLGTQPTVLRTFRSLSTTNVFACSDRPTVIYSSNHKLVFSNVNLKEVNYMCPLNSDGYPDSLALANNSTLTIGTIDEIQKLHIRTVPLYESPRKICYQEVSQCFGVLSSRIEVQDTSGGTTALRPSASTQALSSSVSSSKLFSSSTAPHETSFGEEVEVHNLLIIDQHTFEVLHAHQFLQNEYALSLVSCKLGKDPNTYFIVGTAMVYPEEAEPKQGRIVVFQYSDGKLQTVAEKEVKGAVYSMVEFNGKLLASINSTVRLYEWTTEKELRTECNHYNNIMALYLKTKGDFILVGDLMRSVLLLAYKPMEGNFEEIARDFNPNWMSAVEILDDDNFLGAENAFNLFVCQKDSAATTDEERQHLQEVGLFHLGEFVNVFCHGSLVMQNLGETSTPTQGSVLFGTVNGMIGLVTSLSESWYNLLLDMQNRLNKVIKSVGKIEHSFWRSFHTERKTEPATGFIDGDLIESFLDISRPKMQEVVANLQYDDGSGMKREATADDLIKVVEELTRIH
T2 sequence (Q13422 whole entry): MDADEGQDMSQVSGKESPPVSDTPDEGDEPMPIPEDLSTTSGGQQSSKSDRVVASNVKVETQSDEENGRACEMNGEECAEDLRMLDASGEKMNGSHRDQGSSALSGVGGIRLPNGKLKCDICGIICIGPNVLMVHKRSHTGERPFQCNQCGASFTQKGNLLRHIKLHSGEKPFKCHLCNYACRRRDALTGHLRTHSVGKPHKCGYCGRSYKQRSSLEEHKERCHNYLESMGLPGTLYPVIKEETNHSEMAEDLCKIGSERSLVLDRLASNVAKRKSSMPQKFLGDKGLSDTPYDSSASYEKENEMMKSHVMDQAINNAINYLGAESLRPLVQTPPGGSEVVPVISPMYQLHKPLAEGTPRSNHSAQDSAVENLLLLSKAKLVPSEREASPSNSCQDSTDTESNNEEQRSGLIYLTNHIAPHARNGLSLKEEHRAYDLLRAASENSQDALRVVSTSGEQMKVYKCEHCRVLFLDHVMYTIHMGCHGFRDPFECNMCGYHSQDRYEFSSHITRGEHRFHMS
Text: DEG-37 is also a suitable lead compound for IKZF2 targeted degradation (FIG. 4).

MOLM13 cells [2] = experiment: MTT cell viability assay in MOLM13 cells; assay type: cell-based, human
Protocol: The effect of DEG-7 and DEG-35 were evaluated on cell viability in MOLM13 cells.

IKZF2 [3] = target: T1, IKZF2; experiment: Western blot, IKZF2 degradation in MOLM13 cells; assay type: cell-based; parameters: endogenous in cells; host or cells: MOLM13
Protocol: (§1) To determine the selectivity of DEG-7 and DEG-35, blotting was done for other known IMiD neo-substrates (FIG. 1A). DEG-35 degraded casein kinase 1α (CK1α), a known substrate of lenalidomide, as well as the translation termination factor GSPT1, a substrate of the IMiD CC-885, at 25 μM concentrations. To investigate whether DEG-35 could degrade IKZF2 at lower concentrations, MOLM13 cells were treated with a concentration gradient. At the lowest concentration tested (5 nM), IKZF2 and CK1a degraded, while GSPT1 levels were unperturbed.
Target sequence in this assay (Q9UKS7 whole entry): as the sequence (Q9UKS7 whole entry) above
Target sequence in this assay (Q96SW2 whole entry, further chain): as the sequence (Q96SW2 whole entry, further chain) above
Target sequence in this assay (Q16531 whole entry partner): as the sequence (Q16531 whole entry partner) above

GSPT1 = GSPT1 (Homo sapiens, UniProt P15170+Q96SW2); experiment: Western blot, GSPT1 levels in MOLM13 cells; assay type: cell-based; parameters: endogenous in cells; host or cells: MOLM13
Chain of GSPT1 (P15170 whole entry): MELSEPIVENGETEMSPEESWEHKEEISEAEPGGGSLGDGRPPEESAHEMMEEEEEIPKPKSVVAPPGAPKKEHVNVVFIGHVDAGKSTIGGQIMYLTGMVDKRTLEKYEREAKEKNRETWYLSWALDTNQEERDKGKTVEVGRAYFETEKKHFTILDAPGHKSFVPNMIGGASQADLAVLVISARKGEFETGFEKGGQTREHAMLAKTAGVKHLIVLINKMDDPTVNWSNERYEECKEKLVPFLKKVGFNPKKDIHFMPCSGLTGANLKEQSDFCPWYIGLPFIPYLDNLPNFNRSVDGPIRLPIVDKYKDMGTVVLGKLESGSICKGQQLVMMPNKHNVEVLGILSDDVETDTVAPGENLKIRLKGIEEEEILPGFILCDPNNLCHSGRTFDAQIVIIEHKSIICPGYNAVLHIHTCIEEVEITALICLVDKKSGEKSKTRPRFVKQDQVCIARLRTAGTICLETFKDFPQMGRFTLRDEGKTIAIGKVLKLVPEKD
Chain of GSPT1 (Q96SW2 whole entry): as the sequence (Q96SW2 whole entry, further chain) above
Chain of GSPT1 (Q16531 whole entry partner): as the sequence (Q16531 whole entry partner) above
Protocol: as §1

NOMO1 = experiment: Cell viability, antiproliferation, apoptosis, differentiation in NOMO1 cells; assay type: cell-based
KASUMI = experiment: Cell viability, antiproliferation, apoptosis, differentiation in KASUMI cells; assay type: cell-based
MOLM13 cells [4] = experiment: Apoptosis markers in MOLM13 cells; assay type: cell-based, human
MOLM13 cells [5] = experiment: Differentiation in MOLM13 cells; assay type: cell-based, human
[6] = tested on: over 800 cancer cell lines; experiment: PRISM screen against over 800 cancer cell lines; assay type: cell-based; conditions: MOLM13 cell line
Text: DEG-7 and DEG-35 were submitted to the Broad Institute's PRISM (Profiling Relative Inhibition Simultaneously in Mixtures) screen to be evaluated against over 800 cancer cell lines. The initial screen identified cancer cell lines that were responsive to DEG-7 and DEG-35 treatment. […] Several diffuse large B-cell lymphoma (DLBCL), acute myeloid leukemia (AML), and T-cell acute lymphoblastic leukemia (T-ALL) cell lines responded to DEG-35 in a dose-dependent manner. Of the top ten cell lines that responded to DEG-35 treatment, three were DLBCL cell lines, one was an AML cell line (MOLM13), and one was a T-ALL cell line.

Nc1cccc2c1CN(C1CCC(=O)NC1=O)C2=O (stereo not drawn) [lenalidomide]
IKZF2 degradation (IKZF2 [1]): not degraders of IKZF2

O=C1CCC(N2Cc3cc(NCc4ccc5oc6ccccc6c5c4)ccc3C2=O)C(=O)N1 (stereo not drawn) [DEG-37, 3-(5-((dibenzo[b,d]furan-2-ylmethyl)amino)-1-oxoisoindolin-2-yl)piperidine-2,6-dione]
effect on IKZF1 levels (IKZF1): minimally effect | antiproliferative activity (in words) (MOLM13 cells [2]; MOLM13 / AML cells): milder antiproliferative effects; also recorded: possesses antiproliferative effects | IKZF2 degradation (IKZF2 [3]; 25 μM): selectively degrade IKZF2; also recorded: degrades IKZF2 | effect on GSPT1 levels (GSPT1): minimally effect

COc1ccc2cc(CNc3ccc4c(c3)CN(C3CCC(=O)NC3=O)C4=O)ccc2c1 (stereo not drawn) [DEG-7, 3-(5-(((6-methoxynaphthalen-2-yl)methyl)amino)-1-oxoisoindolin-2-yl)piperidine-2,6-dione]
IC50 (MOLM13 cells [2]; MOLM13 cells): 4.5 µM | effect on cell viability, antiproliferation, apoptosis, or differentiation (NOMO1): no observed effect | effect on cell viability, antiproliferation, apoptosis, or differentiation (KASUMI): no observed effect | induction of apoptosis markers (MOLM13 cells [4]): induced apoptosis markers | induction of differentiation (MOLM13 cells [5]): induced differentiation; also recorded: more efficient at inducing differentiation than DEG-35 | sensitivity of MOLM13 in PRISM screen [6]: sensitive | IKZF2 degradation (IKZF2 [3]; analog screening, concentration not given): robust IKZF2 degradation; also recorded: potent degraders of IKZF2
